# Source: PMC8157322, “Gd(III)–Pt(IV) theranostic contrast agents for tandem MR imaging and chemotherapy” (Chemical Science, 2020)
# Legend:
# [1] = T1/T2 relaxivity measurements in PBS; format: physicochemical; conditions: 37 °C
# Protocol: The T1 relaxivity (r1) and T2 relaxivity (r2) of 1, GP1, and GP2 were measured at both low (1.41 T) and high (7 T) magnetic field strength in phosphate-buffered saline (PBS) to quantify how well they behave as MR contrast agents. […] The relaxivity values for 1 are well within the range of what is expected for a small molecule Gd(III) complex.[34] […] At 7 T, there was little change in r1 for both agents, while both r2 values increased, as expected. […]
# solution. These capillaries were imaged using a Bruker PharmaScan 7 T MR imaging spectrometer (Bruker BioSpin, Billerica, MA, USA). T1 relaxation times were measured using a rapid-acquisition rapid-echo (RARE-VTR) T1-map pulse sequence with static TE (10 ms) and […]
# parameters were as follows: field of view (FOV) = 25 x 25 mm2, matrix size (MTX) = 256 x 256, number of axial slices = 5, slice thickness (SI) = 1.0 mm, and averages (NEX) = 4. T1 analysis was carried out using the image sequence analysis tool in Paravision 5.0 pl2 software (Bruker, Billerica, MA, USA) with monoexponential curve-fitting of image intensities of selected regions of interest (ROIs) for each axial slice. […]
# Fig. S2 Graph of r1 of (A) GP1 measured at 1.41 T (B) GP1 measured at 7 T (C) GP2 measured at 1.41 T
# (D) GP2 measured at 7 T (E) 1 measured at 1.41 T (F) 1 measured at 7 T. All measurements were taken in PBS at 37 °C (G) 1 measured at 1.41 T with 5 mM GSH (H) GP1 measured at 1.41 T with 5 mM GSH and (I) GP2 measured at 1.41 T with 5 mM GSH.
# Table S1. r1 of GP1, GP2, and 1 in PBS with 5 mM glutathione at 37 °C
# GP1 (5 mM GSH) GP2 (5 mM GSH) 1 (5 mM GSH)
# [2] = Stability in aqueous media monitored by HPLC-MS; format: physicochemical
# Protocol: To ensure both agents remain stable in aqueous media under various conditions, they were dissolved in PBS, two types of cell culture media (MEM and RPMI-1640), pH 5 H2O, and porcine live esterase (PLE) in PBS and monitored over time by HPLC-MS. […]
# Stability of GP1 and GP2 in various aqueous media. Aliquots of GP1 and GP2 were prepared from a stock with known mass checked by ICP-MS. An aliquot of each was dissolved in H2O and analyzed by HPLC-MS using an Atlantis C18 column (4.6 × 250 mm, 5 μm) and the following method: MeCN held at 0% for 3 min followed by a 15 min ramp to 100% MeCN (GP1 retention time: 10.9 min, GP2 retention time: 11.6 min). Aliquots of both were additionally dissolved in PBS, MEM, RPMI-1640, pH 5 H2O, PBS with 10 units/mL porcine liver esterase, 5 mM glutathione, and 5 mM sodium ascorbate, incubated in a shaker at 37 °C, and were analyzed by HPLC-MS at different time points using the same method. At each time point, the area of the peak of GP1 or GP2 was determined by integration and compared to the area of the peaks in […]
# A2780 cells [3] = assay: Cell viability assay (CellTiter-Glo 2.0); format: cell-based; conditions: A2780, 48 h incubation
# Protocol: (§1) To assess the cytotoxicity of GP1 and GP2in vitro, cell viability assays were performed to determine the IC50 concentrations in three cancer cell lines (A2780, HeLa, and MCF-7). Table 2 summarizes the IC50 concentrations of both agents compared to those of cisplatin and carboplatin. […] For all cell lines, GP1 was less toxic than cisplatin but followed the same trend of highest toxicity in A2780 cells and least toxic in MCF-7 cells. GP1 releases cisplatin intracellularly, therefore the apparent difference in toxicity of the two is likely due to decreased cell permeability of GP1 caused by the Gd(III) complex. However, because GP1 is inert in the extracellular matrix, higher doses can be safely administered to account for the decreased cell permeability. […]
# (§2) lines were grown in a humidified incubator at 37 °C and 5% CO2 and were harvested using 0.25% TrypLE. Cells were grown for 24 hours after plating before each experiment. All solutions were filtered through […] sterile filters before use.
# (§3) Viability Assays. A2780, HeLa, and MCF-7 cells were plated at a density of 3,000 cells per well (100 µL) in an opaque white 96-well plate. Cells were dosed with 100 µL of solutions of GP1, GP2, cisplatin, or carboplatin in MEM and incubated for 48 hours (GP1 or cisplatin) or 72 hours (GP2 or carboplatin). After incubation, 50 µL CellTiter-Glo 2.0 (Promega, Madison, WI) was added to each well and the assay was carried out following the manufacturer’s protocol.
# (§4) Luminescence of the wells was measured using a Synergy H1 microplate reader (BioTek, Winooski, VT). Viability was determined by comparing luminescence readings of the cells treated with agent to untreated control cells. […]
# HeLa cells [4] = assay: Cell viability assay (CellTiter-Glo 2.0); format: cell-based; conditions: 48 h incubation
# Protocol: as §1, §2, §3, §4
# MCF-7 cells = assay: Cell viability assay (CellTiter-Glo 2.0); format: cell-based; conditions: MCF-7, 48 h incubation
# Protocol: as §1, §2, §3, §4
# A2780 cells [5] = assay: MR imaging of cell pellets at 7 T; format: cell-based; conditions: A2780, 7 T, 6 h incubation; cisplatin 7.5 μM, 1 100 μM, GP1 30 μM, GP2 60 μM
# HeLa cells [6] = assay: MR imaging of cell pellets at 7 T; format: cell-based; conditions: 6 h incubation, cisplatin 15 μM, 1 100 μM, GP1 60 μM, GP2 250 μM
smiles,measurement,setting,value
[NH2][Pt]([NH2])([OH])([Cl])([Cl])[O]C(=O)CCCCCN1CCN2CCN3CCN(CC1)CC(=O)[O][Gd]([O]C(=O)C2)[O]C(=O)C3 [GP1],r1 (T1 relaxivity),[1]; 1.41 T,7.0 mM⁻¹ s⁻¹
same,r1 (T1 relaxivity),[1]; 7 T,7.1 mM⁻¹ s⁻¹
same,Agent intact in MEM,"[2]; MEM, 37 °C, at 48 hours",≥ 92%
same,Stability in PBS,"[2]; PBS, 37 °C, over 48 hours",completely stable
same,Agent reduced to Pt(II) in RPMI-1640,"[2]; RPMI-1640 (0.003 mM GSH), 37 °C, within 48 hours",33%
same,Agent intact in RPMI-1640,"[2]; RPMI-1640, 37 °C, at 6 hours",≥ 96%
same,Stability in pH 5 H2O,"[2]; pH 5 H2O, 37 °C, over 48 hours",completely stable
same,IC50,A2780 cells [3],29.8 ± 2.5 µM
same,IC50,HeLa cells [4],49.3 ± 1.3 µM
same,IC50,MCF-7 cells,113 ± 4 µM
same,T1 of cell pellet,A2780 cells [5],1708 ± 27 ms
same,Δ R1 (increase in R1 vs untreated control),A2780 cells [5],36%
same,T1 of cell pellet,HeLa cells [6],1557 ± 17 ms
same,Δ R1 (increase in R1 vs untreated control),HeLa cells [6],48%
